Data taken from paper PMC12491715 (Acta Pharmaceutica Sinica. B, 2025).

Legend:
hBChE [1] = target: T1, hBChE (Homo sapiens, UniProt P06276); assay: ChE IC50 determination, method of Ellman, hBChE; format: biochemical; conditions: for IC50 / remaining activity at 100 µM: after 5 min preincubation; for IC50: read-out: hBChE IC50±SD; for hBChE time-dependency observed: Yes/No: pre-incubation time varied; for remaining activity at 100 µM: residual activity at 100 μmol/L, read-out: hBChE RA±SD (residual activity); for ChE inhibition of the leaving groups: ChEs (hBChE and hAChE)
T1 sequence (P06276 29-602): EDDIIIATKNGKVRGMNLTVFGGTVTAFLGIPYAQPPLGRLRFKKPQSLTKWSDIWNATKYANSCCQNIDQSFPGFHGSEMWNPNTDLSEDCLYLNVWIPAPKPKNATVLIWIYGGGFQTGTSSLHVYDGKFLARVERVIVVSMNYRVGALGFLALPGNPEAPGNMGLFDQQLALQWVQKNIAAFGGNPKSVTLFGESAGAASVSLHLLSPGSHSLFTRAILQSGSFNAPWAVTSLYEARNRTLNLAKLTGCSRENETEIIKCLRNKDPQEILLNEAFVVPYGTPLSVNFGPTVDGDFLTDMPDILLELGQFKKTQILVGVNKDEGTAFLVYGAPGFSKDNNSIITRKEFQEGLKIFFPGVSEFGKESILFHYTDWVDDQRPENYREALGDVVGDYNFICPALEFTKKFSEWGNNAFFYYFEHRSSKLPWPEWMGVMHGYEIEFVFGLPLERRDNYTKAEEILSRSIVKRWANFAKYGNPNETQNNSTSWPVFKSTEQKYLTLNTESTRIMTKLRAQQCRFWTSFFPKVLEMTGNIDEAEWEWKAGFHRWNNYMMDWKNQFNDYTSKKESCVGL
Description: (§1) The inhibitory potencies of the compounds against the ChEs were determined using the method of Ellman following the procedure described previously. Briefly, compound stock solutions in DMSO were incubated with Ellman’s reagent and ChEs (final concentrations: 370 μmol/L Ellman’s reagent, approximately 1 nmol/L or 50 pmol/L hBChE or hAChE, respectively) in 0.1 mol/L sodium phosphate pH 8.0 for 5 min at 20 °C. For time-dependency measurements, the pre-incubation time was varied (1, 5, 15, 30 or 60 min). The reactions were started by the addition of the substrate (final concentration, 500 μmol/L butyrylthiocholine iodide or acetylthiocholine iodide for hBChE and hAChE, respectively). The final content of DMSO was always 1%. The increase in absorbance at 412 nm was monitored for 2 min using a 96-well microplate reader (Synergy HT, BioTek Instruments, VT, USA). The initial velocities in the presence (vi) and absence (v0) of the test compounds were calculated. The inhibitory potencies were expressed as the residual activities, according to Eq. (1):(1) RA = vi / v0
(§2) For IC50 determinations, at least seven different concentrations for each compound were used. The IC50 values were obtained by plotting the residual ChE activities against the applied inhibitor concentrations, with the experimental data fitted to a four-parameter logistic function (GraphPad Prism 9.4). Tacrine and donepezil were used as positive controls.

hAChE = hAChE (Homo sapiens, UniProt P22303); assay: ChE IC50 determination, method of Ellman, hAChE; format: biochemical; conditions: for hAChE time-dependency observed: Yes/No: pre-incubation time varied; for remaining activity at 100 µM: residual activity at 100 μmol/L, read-out: hAChE RA±SD (residual activity); for remaining activity at 100 µM / IC50: after 5 min preincubation; for IC50: read-out: hAChE IC50±SD
Sequence of hAChE (P22303 32-614): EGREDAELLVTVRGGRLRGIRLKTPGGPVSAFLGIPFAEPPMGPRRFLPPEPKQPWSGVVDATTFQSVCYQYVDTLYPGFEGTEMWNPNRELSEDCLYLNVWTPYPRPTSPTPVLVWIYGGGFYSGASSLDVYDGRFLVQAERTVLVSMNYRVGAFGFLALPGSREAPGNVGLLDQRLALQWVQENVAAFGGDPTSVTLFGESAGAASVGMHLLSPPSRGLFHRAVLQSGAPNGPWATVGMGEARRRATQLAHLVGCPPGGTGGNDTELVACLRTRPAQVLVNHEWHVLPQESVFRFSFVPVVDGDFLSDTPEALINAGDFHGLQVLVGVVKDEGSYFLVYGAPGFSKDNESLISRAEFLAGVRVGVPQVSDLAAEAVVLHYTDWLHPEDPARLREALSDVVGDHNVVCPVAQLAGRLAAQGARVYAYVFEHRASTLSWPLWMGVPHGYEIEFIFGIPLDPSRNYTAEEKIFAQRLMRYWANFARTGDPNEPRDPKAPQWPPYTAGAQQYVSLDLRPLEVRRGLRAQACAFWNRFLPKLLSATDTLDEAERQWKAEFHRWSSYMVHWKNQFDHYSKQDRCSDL
Description: as §1, §2

Aqueous stability (UPLC) = format: physicochemical; conditions: for t1/2 in aqueous solution / k: PBS:EtOH = 80:20, 10 mmol/L; for k: pseudo-first order; for half-life: buffer, PBS:EtOH = 80:20, calculated half-lives only approximates, read-out: t1/2 in aqueous solution (converted)
Description: For the aqueous stability determination, UPLC analyses were performed as described under Chemistry–General Information. The method used a Waters Acquity UPLC® HSS C18 SB column (2.1 mm× 50 mm, 1.8 μm) thermostated at 40 °C, with: injection volume, 5 μL; flow rate, 0.4 mL/min; detector λ, 220 nm; mobile phase A: 0.1% TFA (v/v) in MilliQ water; mobile phase B: MeCN. Gradient: 0–5 min, 20%–100% B; 5–6 min, 20% B.
Compound stock solutions (100 mmol/L) were prepared in absolute EtOH, while the internal standard (caffeine) was dissolved in PBS (0.1 mg/mL). The aqueous stability solutions were prepared by mixing 1200 μL PBS with internal standard, 150 μL absolute EtOH, and 150 μL compound stock solution in a HPLC vial to give 10 mmol/L compound concentration in PBS/EtOH = 80:20, which was injected immediately and then at hourly intervals for 48 h. The analyte AUCs were normalized on internal standard AUCs and compared with the timepoint zero. For the rate calculation, pseudo-first order kinetics were assumed.
For investigation of compound 8 stability in an aqueous medium, its stock solution (10,000 mg/L) was prepared in EtOH. 15 μL of the stock solution was mixed with 60 μL of caffeine (2500 mg/L in EtOH) and 1425 μL of the respective aqueous solution/buffer to achieve final concentration of 100 mg/L with 5% ethanol content. The UPLC analysis was carried as described above.

hBChE [2] = target: T1, hBChE; assay: hBChE binding kinetics: carbamoylation and decarbamoylation, initial velocity measurements; format: biochemical
Description: The progress curves for the time courses of product formation for the hydrolysis of butyrylthiocholine iodide were measured on an Agilent Cary 3500 UV–VIS spectrophotometer with Compact Peltier (thermostated at 25 °C) at 412 nm using a 0.6 mL cuvette (optical path–0.5 cm). 30 mmol/L Tris buffer pH 7.0 with 1 mg/mL BSA and 0.02% NaN3 was used and all dilutions were done in glass vessels (note: dilute hBChE solutions rapidly lose activity, presumably due to adsorption to plastic, preventing meaningful decarbamoylation assays. In our hands, under the above conditions only, the diluted and stock solutions of hBChE were stable for at least a month at room temperature.). Total volume in the cuvette was always 500 μL, and enzyme solutions that gave upon dilution v0 = (dA/dt) ≈ 0.5 (for carbamoylation) and ≈ 1 for (for decarbamoylation) were used. For carbamoylation experiments, 0.5–1 μL of enzyme stock, 5 μL of compound solution, and 484 μL of buffer were preincubated for the specified time, then 10 μL of the mixture of 25 mmol/L Ellman’s reagent (DTNB) and 20 mmol/L butyrylthiocholine (large excess to prevent substrate depletion) were added, quickly mixed, and measurement started. […] The data analysis followed the literature[63]^,[98].

SH-SY5Y cells = assay: Neuroprotection assay against Aβ1–42, 7-AAD flow cytometry; format: cell-based, human; conditions: 5 μmol/L compound, 5 μmol/L fibrillar Aβ1–42, 48 h
Description: (§3) Cell culture and treatments The human neuroblastoma SH-SY5Y cell line was purchased from American Type Culture Collection (Manassas, VA, USA). Cells were cultured in Advanced Dulbecco’s modified Eagle’s medium (Gibco, Thermo Fisher Scientific, Waltham, MA, USA) supplemented with 10% fetal bovine serum (FBS, Gibco), 2 mmol/L L-glutamine, 50 U/mL penicillin and 50 μg/mL streptomycin (Sigma, St. Louis, MO, USA) in a humidified atmosphere of 95% air and 5% CO2 at 37 °C, and grown to 80% confluence. Prior to cell treatment, complete medium was replaced with serum-reduced medium (i.e., with 2% FBS). Compounds were prepared as a stock solution of 50 mmol/L in DMSO.
Neuroprotection assay The neuroprotective effect of compounds on cytotoxic effect of Aβ1–42 was determined with the fluorescent intercalator 7-aminoactinomycin D (7-AAD) assessed by flow cytometry. Prior to cell treatment, the peptide Aβ1–42 (Merck Millipore, Darmstadt, Germany) was dissolved in DMSO at a concentration of 1 mmol/L and was incubated at 100 μmol/L in 1 mol/L HCl at 37 °C for 24 h to induce Aβ aggregation. […] Cells were then analysed for cytotoxicity by flow cytometry on Attune NxT flow cytometer (Thermo Fisher Scientific). The percentage of 7AAD positive (7AADpos) cells was evaluated using FlowJo software (FlowJo, LLC., Ashland, OR, USA).

[3] = test system: caspase-3 activity in SH-SY5Y cells; assay: Caspase-3 activity in lysates of Aβ1–42-treated cells; format: cell-based, human; conditions: 5 μmol/L compound, 5 μmol/L fibrillar Aβ1–42, 24 h
Description: as §3
Caspase-3 activity and Western blot analysis The activity of caspases-3 was determined in total cell lysates of the SH-SY5Y cells treated as described. […] Following cell treatment for 24 h, cell lysates were prepared, and the caspase-3 activity was assessed using the fluorescent peptide substrate N-acetyl-L-α-aspartyl-L-α-glutamyl-L-valyl-N-[2-oxo-4-(trifluoromethyl)-2H-1-benzopyran-7-yl]-L-α-asparagine (Ac-DEVD-AFC; Bachem). […] Immediately after the addition of the substrate, fluorescence was monitored continuously for 30 min at an excitation wavelength of 405 nm and an emission wavelength of 535 nm using a Tecan Safire[2] fluorescence microplate reader. […]

Row | SMILES | IC50 (hBChE [1]) [nM] | hBChE time-dependency observed: Yes/No (hBChE [1]) | hAChE time-dependency observed: Yes/No (hAChE) | remaining activity at 100 µM (hAChE) [%] | k (Aqueous stability (UPLC)) [h–1] | IC50 (hAChE) [nM] | remaining activity at 100 µM (hBChE [1]) [%] | ChE inhibition of the leaving groups (hBChE [1]) | also measured
1 | CCC1(c2cn(C(=O)N(C)Cc3ccccc3)cn2)Cc2ccccc2C1 [Compound 10, N-Benzyl-4-(2-ethylindan-2-yl)-N-methyl-1H-imidazole-1-carboxamide] | 53 ± 10 | Yes | Yes | 34 | – | – | – | – | –
2 | CCC1(c2cn(C(=O)N(C)C)c[n+]2C)Cc2ccccc2C1.O=S(=O)([O-])C(F)(F)F [Compound 13, 1-(Dimethylcarbamoyl)-4-(2-ethylindan-2-yl)-3-methyl-1H-imidazol-3-ium trifluoromethanesulfonate] | 8.4 ± 4.6 | Yes | Yes | – | 0.05236 | 3190 ± 400 | – | – | t1/2 in aqueous solution (Aqueous stability (UPLC)): 0.55 days
3 | CCC1(c2cn(C(=S)N(C)C)cn2)Cc2ccccc2C1 [Compound 11, 4-(2-Ethylindan-2-yl)-N,N-dimethyl-1H-imidazole-1-carbothioamide] | – | Yes | – | 69 | – | – | 49 | – | –
4 | CCC1(c2ncn(C(=O)N(C)C)n2)Cc2ccccc2C1 [Compound 17, 3-(2-Ethylindan-2-yl)-N,N-dimethyl-1H-1,2,4-triazole-1-carboxamide] | 5 ± 1.2 | Yes | Yes | – | 0.000628 | 2930 ± 1280 | – | – | half-life (Aqueous stability (UPLC)): ~46 days
5 | CCC1(c2cn(C(=O)N3CCCCC3)cn2)Cc2ccccc2C1 [Compound 9, (4-(2-Ethylindan-2-yl)-1H-imidazol-1-yl)(piperidin-1-yl)methanone] | 2.5 ± 2 | Yes | Yes | – | – | 7550 ± 2140 | – | – | –
6 | CCC1(c2cn(C(=O)N(C)C)cn2)Cc2ccccc2C1 [Compound 6, 4-(2-Ethylindan-2-yl)-N,N-dimethyl-1H-imidazole-1-carboxamide] | 14 ± 2 | Yes | Yes | – | – | 32800 | – | – | selectivity for hBChE over hAChE (hBChE [1]): 2500 fold; Ki (hBChE [2]): 116 ± 3 nM; kcarb, carbamoylation (hBChE [2]; 25 °C): 9.0±2.5 min^–1; kdecarb, decarbamoylation (hBChE [2]; 25 °C): 3.59±0.28 ×10^–2 h^–1; t1/2, decarbamoylation (hBChE [2]; 25 °C): 0.804 ± 0.0625 days; ΔG25°C‡, carbamoylation (hBChE [2]; 25 °C): 18.6 ± 0.2 kcal/mol; 7-AAD-positive cells after Aβ1–42 treatment (SH-SY5Y cells): significant reduction; caspase-3 activity after Aβ1–42 treatment [3]: significant reduction; t1/2 in aqueous solution (Aqueous stability (UPLC); during 48 h): stable
7 | CCC1(c2cnn(C(=O)N(C)C)n2)Cc2ccccc2C1 [Compound 15, 4-(2-Ethylindan-2-yl)-N,N-dimethyl-2H-1,2,3-triazole-2-carboxamide] | 1.9 ± 0.5 | Yes | Yes | – | 0.000982 | 234 ± 46 | – | – | half-life (Aqueous stability (UPLC)): ~29 days
8 | CCC1(c2nc[nH]n2)Cc2ccccc2C1 [Compound 16, 3-(2-Ethylindan-2-yl)-1H-1,2,4-triazole] | – | – | – | 83 | – | – | 89 | ineffective | –
9 | CCC1(c2cn[nH]n2)Cc2ccccc2C1 [Compound 14, 4-(2-Ethylindan-2-yl)-2H-1,2,3-triazole] | – | – | – | 85 | – | – | 82 | ineffective | –
10 | CCC1(c2cncn2C)Cc2ccccc2C1 [Compound 12, 5-(2-Ethylindan-2-yl)-1-methyl-1H-imidazole] | – | – | – | 74 | – | – | 67 | ineffective | –
